Measurements from patent publication US4693999A, “Liposomes containing steroid esters” (priority 1984, dated 1987).
Read-outs that look alike come from different tables or passages of the source.

Columns and labels:
[1] = tested on: Sephadex-included lung edema; test: Sephadex-induced lung edema in rats (anti-inflammatory effect), glucocorticoid in liposomes instilled into left lung lobe; type: in vivo, Sprague Dawley rats; settings: for inhibition in vivo at 3.35 µmol/kg / inhibition in vivo at 0.335 µmol/kg / inhibition in vivo at 0.0335 µmol/kg / inhibition in vivo at 0.1 µmol/kg: Rattus norvegicus; for inhibition in vivo at 3.35 µmol/kg: 3350 nmol/kg instilled in left lung lobe; for reduction of edema in left lung / protection of left lung / block of left lung edema (in words) / activity in the other lung half (in words): summary of Table 1; for reduction of edema in left lung / protection of left lung / block of left lung edema (in words): locally treated left lung; for activity in the other lung half (in words): right lung compared with left; for inhibition in vivo at 0.0335 µmol/kg: 33.5 nmol/kg instilled in left lung lobe; for inhibition in vivo at 0.1 µmol/kg: 100 nmol/kg instilled in left lung lobe
Description: (§1) Intratracheal instillation of Sephadex beads into rats leads to bronchial and also to alveolar inflammation. This provokes interstitial lung edema, which increases the lung weight, and the inflammation can be graded as the increase of the lung weight compared to a saline-instilled control group. The lung edema formation can be counteracted by pretreatment with glucocorticoids, preferably by local administration as intratracheal instillation or as inhalation. Ideally an anti-inflammatory action should be obtained only at the site of glucocorticoid application in the lung, but not in the rest of the body as this in long term treatment can lead to therapy limiting systemic side effects.
The differentiation between glucocorticoid actions in the treated lung region and outside this area can be tested in the following way.
(§2) Sprague Dawley rats (225 g) were slightly anaesthetized with ether and the glucocorticoid test preparation (in liposomes suspended in saline) in a volume of 0.5 ml/kg was instilled into just the left lung lobe. Two h later a suspension of Sephadex (5 mg/kg in a volume of […] was instilled in the trachea well above the bifurcation so that the suspension reached both the left and right lung lobes. Twenty h later the rats were killed and the left and right lung lobes dissected out and weighed separately. Also the spleen weight and the body weight gain over the 20 h were determined. Control groups got vehicle instead of glucocorticoid preparation and saline instead of Sephadex suspension to determine the weight of non-drug treated Sephadex edema and the normal lung weight as well as the normal spleen weight and body weight gain.
As stated above an ideal glucocorticoid preparation should have a very high glucocorticoid activity at the site of application in lung, but with low activity outside this area. Therefore, in the selected model an optimal preparation should more or less completely block the edema in the locally pretreated left lung lobe, but have much less activity in the right lung half and no significant inhibitory action on the spleen weight and the body weight gain. […] In the test protocol used, doses were selected leading to a more or less complete block of the edema in the left lung and at these dose levels the extent of the other activities was estimated. At the selected dose 7-9 rats were tested in parallel.

[2] = Spleen weight and body weight gain in the Sephadex lung edema test (systemic glucocorticoid action); type: in vivo, Sprague Dawley rats; parameters: Body weight gain in rel. to control: unit not given here; settings: for Body weight gain in rel. to control: over 20 h; for % inhib. compared to control group, spleen: spleen weight, 20 h after Sephadex; for reduction of body weight gain (in words) / reduction of spleen (in words): summary of Table 1
Description: as §1, §2
As stated above an ideal glucocorticoid preparation should have a very high glucocorticoid activity at the site of application in lung, but with low activity outside this area. Therefore, in the selected model an optimal preparation should more or less completely block the edema in the locally pretreated left lung lobe, but have much less activity in the right lung half and no significant inhibitory action on the spleen weight and the body weight gain. It has been considered more important to search for a high degree of separation between the local activity (exemplified with the left lung) to the other activities than to search for a high absolute potency (high activity per mg drug) for the action in the left lung. In the test protocol used, doses were selected leading to a more or less complete block of the edema in the left lung and at these dose levels the extent of the other activities was estimated. At the selected dose 7-9 rats were tested in parallel. Mean±s.e.m. was calculated and compared with Student's t-test to the results of the corresponding Sephadex control group.

[3] = liposomes in saline, 2 h before Sephadex, 20 h readout, locally treated lobe, read-out: % inhib. compared to control group, left lobe
[4] = liposomes in saline, 2 h before Sephadex, 20 h readout, untreated lobe, read-out: % inhib. compared to control group, right lobe
[5] = 3350 nmol/kg instilled in left lung lobe, NS = not significant
[6] = 20 h, read-out: % inhib. compared to control group, left lobe
[7] = 20 h, read-out: % inhib. compared to control group, right lobe
[8] = 335 nmol/kg instilled in left lung lobe, NS = not significant
[9] = 335 nmol/kg instilled in left lung lobe, liposomes in saline, 2 h before Sephadex, 20 h readout, locally treated lobe, read-out: % inhib. compared to control group, left lobe
[10] = 335 nmol/kg instilled in left lung lobe, liposomes in saline, 2 h before Sephadex, 20 h readout, untreated lobe, read-out: % inhib. compared to control group, right lobe
[11] = 33.5 nmol/kg instilled in left lung lobe, NS = not significant
[12] = 100 nmol/kg instilled in left lung lobe

Q: What does the source list for `CCCCCCCCCCCCCCCC(=O)OCC(=O)[C@@]1(OC(=O)CC)[C@@H](C)C[C@H]2[C@@H]3CCC4=CC(=O)C=C[C@]4(C)[C@@]3(Cl)[C@@H](O)C[C@@]21C` [Beclomethasone-21-palmitate-17-propionate]?
A: inhibition in vivo at 3.35 µmol/kg [1, 3]: 87%; inhibition in vivo at 3.35 µmol/kg [1, 4]: 47%; reduction of edema in left lung / protection of left lung [1]: 87%; Body weight gain in rel. to control [2, 5]: -3.1; % inhib. compared to control group, spleen [2, 5]: 5%

Q: With `CCCCCCCCCCCCCCCC(=O)OCC(=O)[C@@]1(O)[C@@H](C)C[C@H]2[C@@H]3CCC4=CC(=O)C=C[C@]4(C)[C@@]3(F)[C@@H](O)C[C@@]21C` [Betamethasone-21-palmitate] as the molecule, how does the inhibition in vivo at 0.335 µmol/kg [1, 6] read?
A: 109%

Q: What about the inhibition in vivo at 0.335 µmol/kg [1, 7] of the same molecule?
A: -5%

Q: And the “Body weight gain in rel. to control” value [2, 8]?
A: 0.2

Q: And the “% inhib. compared to control group, spleen” value [2, 8]?
A: 7%

Q: Which results are given for `CCCCCCCCCCCCCCCC(=O)OCC(=O)[C@@]12OC(CCC)O[C@@H]1C[C@H]1[C@@H]3CCC4=CC(=O)C=C[C@]4(C)[C@H]3[C@@H](O)C[C@@]12C` (some centres unmarked) [Budesonide-21-palmitate]?
A: inhibition in vivo at 0.335 µmol/kg [1, 9]: 100%; inhibition in vivo at 0.335 µmol/kg [1, 10]: 37%; Body weight gain in rel. to control [2, 8]: -1.4; % inhib. compared to control group, spleen [2, 8]: 4%

Q: For `CCCCC(=O)OCC(=O)[C@@]12OC(CCC)O[C@@H]1C[C@H]1[C@@H]3CCC4=CC(=O)C=C[C@]4(C)[C@H]3[C@@H](O)C[C@@]12C` (some centres unmarked) [Budesonide-21-valerate], which inhibition in vivo at 0.335 µmol/kg [1, 9] is on record?
A: 21%

Q: What about the inhibition in vivo at 0.335 µmol/kg [1, 10] of the same molecule?
A: 22%

Q: And the “reduction of edema in left lung / protection of left lung” value [1]?
A: up to 38%

Q: And the “Body weight gain in rel. to control” value [2, 8]?
A: -0.8

Q: What about the “% inhib. compared to control group, spleen” value [2, 8] of the same molecule?
A: -1%

Q: For `CCCC1O[C@@H]2C[C@H]3[C@@H]4CCC5=CC(=O)C=C[C@]5(C)[C@H]4[C@@H](O)C[C@]3(C)[C@]2(C(=O)CO)O1` (some centres unmarked) [Budesonide], which inhibition in vivo at 0.335 µmol/kg [1, 9] is on record?
A: 38%

Q: And the inhibition in vivo at 0.335 µmol/kg [1, 10]?
A: 30%

Q: And the “reduction of edema in left lung / protection of left lung” value [1]?
A: up to 38%

Q: What about the “Body weight gain in rel. to control” value [2, 8] of the same molecule?
A: 1.6

Q: With `CCCCCCCCCCCCCCCC(=O)OCC(=O)[C@@]1(OC(=O)CC)[C@H](C)C[C@H]2[C@@H]3CCC4=CC(=O)C=C[C@]4(C)[C@@]3(F)[C@@H](O)C[C@@]21C` [Dexamethasone-21-palmitate-17-propionate] as the molecule, how does the inhibition in vivo at 0.335 µmol/kg [1, 9] read?
A: 104%

Q: And the inhibition in vivo at 0.335 µmol/kg [1, 10]?
A: 44%

Q: And the “Body weight gain in rel. to control” value [2, 8]?
A: 1.0

Q: And the “% inhib. compared to control group, spleen” value [2, 8]?
A: 3%

Q: For `CCCCCCCCCCCCCCCC(=O)OCC(=O)[C@@]1(O)[C@H](C)C[C@H]2[C@@H]3CCC4=CC(=O)C=C[C@]4(C)[C@@]3(F)[C@@H](O)C[C@@]21C` [Dexamethasone-21-palmitate], which inhibition in vivo at 0.335 µmol/kg [1, 6] is on record?
A: 127%

Q: And the inhibition in vivo at 0.335 µmol/kg [1, 7]?
A: 109%

Q: And the “block of left lung edema (in words)” value [1]?
A: completely blocked the left lung edema

Q: What about the “activity in the other lung half (in words)” value [1] of the same molecule?
A: as high activity in the other lung half

Q: What about the “Body weight gain in rel. to control” value [2, 8] of the same molecule?
A: -10.8

Q: And the “reduction of body weight gain (in words)” value [2]?
A: significant reduction of body weight gain

Q: And the “reduction of spleen (in words)” value [2]?
A: significant reduction of body weight gain and to spleen

Q: What does the source list for `CCCCCCCCCCCCCCCC(=O)OCC(=O)[C@@]1(OC(=O)CC)[C@H](C)C[C@H]2[C@@H]3C[C@H](F)C4=CC(=O)C=C[C@]4(C)[C@@]3(F)[C@@H](O)C[C@@]21C` [Flumethasone-21-palmitate-17-propionate]?
A: inhibition in vivo at 0.0335 µmol/kg [1, 3]: 108%; inhibition in vivo at 0.0335 µmol/kg [1, 4]: 43%; Body weight gain in rel. to control [2, 11]: 2.0; % inhib. compared to control group, spleen [2, 11]: -1%

Q: What does the source list for `CCCCCCCCCCCCCCCC(=O)OCC(=O)[C@@]12OC(C)(C)O[C@@H]1C[C@H]1[C@@H]3C[C@H](F)C4=CC(=O)C=C[C@]4(C)[C@H]3[C@@H](O)C[C@@]12C` [Flunisolide-21-palmitate]?
A: inhibition in vivo at 0.0335 µmol/kg [1, 3]: 133%; inhibition in vivo at 0.0335 µmol/kg [1, 4]: 44%; Body weight gain in rel. to control [2, 11]: -2.6; % inhib. compared to control group, spleen [2, 11]: 8%

Q: With `CCCCCCCCCCCCCCCC(=O)OCC(=O)[C@@]12OC(C)(C)O[C@@H]1C[C@H]1[C@@H]3C[C@H](F)C4=CC(=O)C=C[C@]4(C)[C@@]3(F)[C@@H](O)C[C@@]12C` [Fluocinolone acetonide-21-palmitate] as the molecule, how does the inhibition in vivo at 0.1 µmol/kg [1, 3] read?
A: 117%

Q: What about the inhibition in vivo at 0.1 µmol/kg [1, 4] of the same molecule?
A: 95%

Q: What about the “block of left lung edema (in words)” value [1] of the same molecule?
A: completely blocked the left lung edema

Q: And the “activity in the other lung half (in words)” value [1]?
A: as high activity in the other lung half

Q: And the “Body weight gain in rel. to control” value [2, 12]?
A: -4.8

Q: And the “% inhib. compared to control group, spleen” value [2, 12]?
A: 15%

Q: And the “reduction of body weight gain (in words)” value [2]?
A: significant reduction of body weight gain

Q: What about the “reduction of spleen (in words)” value [2] of the same molecule?
A: significant reduction of body weight gain and to spleen

Q: With `CCCCCCCCCCCCCCCC(=O)OCC(=O)[C@@]1(O)CC[C@H]2[C@@H]3CCC4=CC(=O)CC[C@]4(C)[C@H]3[C@@H](O)C[C@@]21C` [Hydrocortisone-21-palmitate] as the molecule, how does the inhibition in vivo at 0.335 µmol/kg [1, 9] read?
A: -13%

Q: What about the inhibition in vivo at 0.335 µmol/kg [1, 10] of the same molecule?
A: -7%

Q: And the “reduction of edema in left lung / protection of left lung” value [1]?
A: up to 38%

Q: And the “Body weight gain in rel. to control” value [2, 8]?
A: -1
